Measured values published in ChEMBL document CHEMBL1146153, “A metabolically stable tight-binding transition-state inhibitor of glyoxalase-I” (Bioorg Med Chem Lett, 2006).

Assays:
[1] = Stability against equine kidney gamma-glutamyltranspeptidase mediated breakdown at pH 8.4 after 15 mins; assay type: ADME, tissue-based; conditions: pH 8.4, 0.25 h
[2] = target: T1, Glyoxalase I (Saccharomyces cerevisiae S288c, UniProt P50107); test: Inhibition of yeast glyoxalase1
T1 sequence (P50107 whole entry): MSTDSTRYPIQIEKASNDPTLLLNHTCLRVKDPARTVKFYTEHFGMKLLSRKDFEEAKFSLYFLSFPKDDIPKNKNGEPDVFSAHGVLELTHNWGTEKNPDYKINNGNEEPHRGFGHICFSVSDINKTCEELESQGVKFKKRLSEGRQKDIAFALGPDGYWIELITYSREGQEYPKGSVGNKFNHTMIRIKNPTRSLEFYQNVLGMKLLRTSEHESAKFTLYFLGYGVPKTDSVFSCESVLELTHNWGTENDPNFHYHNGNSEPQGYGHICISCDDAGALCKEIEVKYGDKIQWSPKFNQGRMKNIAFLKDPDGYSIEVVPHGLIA

[3] = Stability against equine kidney gamma-glutamyltranspeptidase mediated breakdown at pH 8.4 after 15 hrs; assay type: ADME; conditions: pH 8.4, 15 h

Row | SMILES | Activity [1] | Ki [2] [nM] | Stability [3]
1 | N[C@@H](CCC(=O)N[C@@H](CSC(=O)N(O)c1ccc(Br)cc1)C(=O)NCC(=O)O)C(=O)O | Not Active | – | –
2 | N[C@@H](CCC(=O)N[C@@H](CSCc1ccc(Br)cc1)C(=O)NCC(=O)O)C(=O)O | Not Active | – | –
3 | N[C@@H](CNC(=O)N[C@@H](CSC(=O)N(O)c1ccc(Br)cc1)C(=O)NCC(=O)O)C(=O)O | – | 2190 | Stable
